From the NIST ThermoML archive (doi:10.1016/j.jct.2015.09.002)

Assay: xn = mol fraction of the nth substance listed
Conditions: 93.2 kPa, Liquid, Vibrating tube method

CCCNCCC [dipropylamine] + CC#N
mass density [kg/m3]
Conditions | 293.15 K | 298.15 K | 303.15 K | 308.15 K
x2 = 0 | 738.18 | 733.64 | 729.07 | 724.48
x2 = 0.0106 | 738.6 | 734.04 | 729.47 | 724.87
x2 = 0.0215 | 738.86 | 734.31 | 729.71 | 725.09
x2 = 0.0323 | 739.1 | 734.53 | 729.92 | 725.29
x2 = 0.0406 | 739.28 | 734.72 | 730.09 | 725.48
x2 = 0.0507 | 739.51 | 734.94 | 730.32 | 725.71
x2 = 0.0605 | 739.75 | 735.16 | 730.53 | 725.91
x2 = 0.0684 | 739.93 | 735.34 | 730.7 | 726.08
x2 = 0.0801 | 740.21 | 735.61 | 730.96 | 726.32
x2 = 0.0926 | 740.51 | 735.91 | 731.26 | 726.61
x2 = 0.101 | 740.71 | 736.11 | 731.45 | 726.79
x2 = 0.1493 | 741.88 | 737.23 | 732.56 | 727.89
x2 = 0.2009 | 743.16 | 738.47 | 733.79 | 729.06
x2 = 0.2547 | 744.47 | 739.78 | 735.06 | 730.34
x2 = 0.3001 | 745.65 | 740.94 | 736.2 | 731.45
x2 = 0.3514 | 747.06 | 742.32 | 737.55 | 732.77
x2 = 0.3995 | 748.45 | 743.68 | 738.88 | 734.07
x2 = 0.4556 | 750.19 | 745.39 | 740.57 | 735.71
x2 = 0.5008 | 751.71 | 746.88 | 742.02 | 737.15
x2 = 0.551 | 753.52 | 748.66 | 743.77 | 738.86
x2 = 0.6037 | 755.61 | 750.71 | 745.77 | 740.81
x2 = 0.6481 | 757.56 | 752.63 | 747.66 | 742.67
x2 = 0.6992 | 760.02 | 755.04 | 750.02 | 744.98
x2 = 0.7495 | 762.68 | 757.65 | 752.58 | 747.48
x2 = 0.7997 | 765.7 | 760.61 | 755.49 | 750.33
x2 = 0.8496 | 769.02 | 763.85 | 758.66 | 753.43
x2 = 0.9002 | 772.87 | 767.63 | 762.35 | 757.05
x2 = 0.9092 | 773.6 | 768.35 | 763.04 | 757.76
x2 = 0.9194 | 774.47 | 769.22 | 763.9 | 758.59
x2 = 0.9298 | 775.37 | 770.09 | 764.79 | 759.45
x2 = 0.9492 | 777.14 | 771.83 | 766.49 | 761.13
x2 = 0.9697 | 779.11 | 773.75 | 768.36 | 762.97
x2 = 0.9892 | 781.03 | 775.63 | 770.22 | 764.78

CCCN [propan-1-amine] + CC#N
mass density [kg/m3]
Conditions | 293.15 K | 298.15 K | 303.15 K | 308.15 K
x2 = 0 | 716.48 | 711.21 | 705.88 | 700.62
x2 = 0.0105 | 717.02 | 711.79 | 706.42 | 701.16
x2 = 0.0199 | 717.49 | 712.26 | 706.89 | 701.63
x2 = 0.0296 | 717.97 | 712.74 | 707.37 | 702.11
x2 = 0.0409 | 718.55 | 713.3 | 708.3 | 702.66
x2 = 0.0512 | 719.01 | 713.79 | 708.42 | 703.16
x2 = 0.061 | 719.48 | 714.26 | 708.9 | 703.65
x2 = 0.0707 | 719.96 | 714.7 | 709.38 | 704.14
x2 = 0.0809 | 720.48 | 715.23 | 710.24 | 704.64
x2 = 0.0895 | 720.87 | 715.66 | 710.31 | 705.06
x2 = 0.0993 | 721.35 | 716.14 | 710.79 | 705.55
x2 = 0.1493 | 723.85 | 718.65 | 713.34 | 708.1
x2 = 0.2006 | 726.46 | 721.27 | 715.97 | 710.75
x2 = 0.2499 | 729.08 | 723.91 | 718.64 | 713.3
x2 = 0.2998 | 731.77 | 726.59 | 721.31 | 715.96
x2 = 0.3507 | 734.55 | 729.34 | 724.05 | 718.82
x2 = 0.3993 | 737.38 | 732.18 | 726.9 | 721.58
x2 = 0.4479 | 740.27 | 735.05 | 729.77 | 724.44
x2 = 0.4988 | 743.34 | 738.1 | 732.79 | 727.56
x2 = 0.5486 | 746.55 | 741.33 | 736.02 | 730.68
x2 = 0.6017 | 750.02 | 744.77 | 739.46 | 734.16
x2 = 0.6499 | 753.32 | 748.08 | 742.76 | 737.45
x2 = 0.6998 | 756.86 | 751.61 | 746.49 | 740.98
x2 = 0.7501 | 760.68 | 755.4 | 750.19 | 744.7
x2 = 0.8001 | 764.57 | 759.28 | 754.03 | 748.54
x2 = 0.8487 | 768.54 | 763.25 | 757.85 | 752.47
x2 = 0.8995 | 772.9 | 767.55 | 762.15 | 756.72
x2 = 0.9089 | 773.68 | 768.32 | 762.93 | 757.54
x2 = 0.9201 | 774.65 | 769.28 | 763.89 | 758.5
x2 = 0.928 | 775.36 | 770 | 764.6 | 759.19
x2 = 0.9393 | 776.43 | 771.07 | 765.67 | 760.24
x2 = 0.9491 | 777.27 | 771.89 | 766.51 | 761.05
x2 = 0.9594 | 778.22 | 772.82 | 767.45 | 761.98
x2 = 0.9678 | 778.99 | 773.6 | 768.21 | 762.74
x2 = 0.9795 | 780.09 | 774.69 | 769.3 | 763.82
x2 = 0.9893 | 781.01 | 775.61 | 770.21 | 764.73
